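96-well plates; 48 h exposure; 5 concentrations. Endpoints by linear interpolation between flanking doses. Not reached: highest tested concentration assigned. At the GI50, growth is halved.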 The source made the active and inactive calls. Cut-off read from the data, not from the text of the source: active = GI50 up to about 1.1 µM and inactive = higher.
Columns and labels:
Test in all cases: DTP human tumour cell line panel, 48 h
HL-60 = system: HL-60
NCI-H23 = system: NCI-H23
K562 = system: K562
OVCAR-4 = system: OVCAR-4
ACHN = system: ACHN
786-0 = system: 786-0
Malme-3M = system: Malme-3M
SF-295 = system: SF-295
DMS-273 = system: DMS-273
IGROV-1 = system: IGROV-1
LXFL 529 = system: LXFL 529
NCI-H522 = system: NCI-H522
TK-10 = system: TK-10
HCT-15 = system: HCT-15
HOP-62 = system: HOP-62
SK-OV-3 = system: SK-OV-3
MDA-MB-435 = system: MDA-MB-435
MCF7 = system: MCF7
MDA-N = system: MDA-N
NCI/ADR-RES = system: NCI/ADR-RES

SMILES	GI50 (HL-60)	GI50 (NCI-H23)	GI50 (K562)	GI50 (OVCAR-4)	GI50 (ACHN)	GI50 (786-0)	GI50 (Malme-3M)	GI50 (SF-295)	GI50 (DMS-273)	GI50 (IGROV-1)	GI50 (LXFL 529)	GI50 (NCI-H522)	GI50 (TK-10)	GI50 (HCT-15)	GI50 (HOP-62)	GI50 (SK-OV-3)	GI50 (MDA-MB-435)	GI50 (MCF7)	GI50 (MDA-N)	GI50 (NCI/ADR-RES)
O=S(=O)(/C=C/c1ccc(F)cc1)Cc1ccc(CS(=O)(=O)/C=C/c2ccc(F)cc2)cc1	> 100 µM (inactive)	> 100 µM (inactive)	> 100 µM (inactive)	> 100 µM (inactive)	> 100 µM (inactive)	> 100 µM (inactive)	> 100 µM (inactive)	> 100 µM (inactive)	> 100 µM (inactive)	> 100 µM (inactive)	> 100 µM (inactive)	> 100 µM (inactive)	> 100 µM (inactive)	> 100 µM	> 100 µM (inactive)	> 100 µM (inactive)	–	–	–	–
COc1ccccc1NC(=O)C1=C(C)NC(C)=C(C(=O)Nc2ccccc2OC)C1c1ccccc1OC	75.2 µM (inactive)	> 100 µM (inactive)	60.5 µM (inactive)	69 µM (inactive)	74.5 µM (inactive)	> 100 µM (inactive)	> 100 µM (inactive)	> 100 µM (inactive)	> 100 µM (inactive)	> 100 µM (inactive)	> 100 µM (inactive)	> 100 µM (inactive)	> 100 µM (inactive)	> 100 µM	> 100 µM (inactive)	> 100 µM (inactive)	–	–	–	–
CCC1CCc2c(c(=O)oc3c2cc(OC)c2cccc(OC)c23)C1 (stereo unspecified)	17.5 µM (inactive)	57.1 µM (inactive)	40.9 µM (inactive)	76 µM (inactive)	87.7 µM (inactive)	> 100 µM (inactive)	56.9 µM (inactive)	32.6 µM (inactive)	42.6 µM (inactive)	> 100 µM (inactive)	44 µM (inactive)	36.6 µM (inactive)	> 100 µM (inactive)	> 100 µM	60.5 µM (inactive)	> 100 µM (inactive)	–	–	–	–
[N-]=[N+]=Nc1cc(=O)oc2ccccc12	> 100 µM (inactive)	> 100 µM (inactive)	> 100 µM (inactive)	> 100 µM (inactive)	> 100 µM (inactive)	> 100 µM (inactive)	> 100 µM (inactive)	> 100 µM (inactive)	> 100 µM (inactive)	> 100 µM (inactive)	> 100 µM (inactive)	> 100 µM (inactive)	> 100 µM (inactive)	> 100 µM	> 100 µM (inactive)	> 100 µM (inactive)	–	–	–	–
COc1cc2c(oc(=O)c3cc4ccoc4c(OC)c32)c2cccc(O)c12	> 100 µM (inactive)	> 100 µM (inactive)	> 100 µM (inactive)	> 100 µM (inactive)	> 100 µM (inactive)	> 100 µM (inactive)	> 100 µM (inactive)	> 100 µM (inactive)	> 100 µM (inactive)	> 100 µM (inactive)	> 100 µM (inactive)	> 100 µM (inactive)	> 100 µM (inactive)	> 100 µM	> 100 µM (inactive)	> 100 µM (inactive)	–	–	–	–
COC(=O)C(C(=O)C(N)=O)c1csc(-n2nc(-c3ccccc3)cc2-c2ccccc2)n1 (stereo unspecified)	26.1 µM (inactive)	> 100 µM (inactive)	23.8 µM (inactive)	> 31.6 µM (inactive)	> 31.6 µM (inactive)	> 31.6 µM (inactive)	> 31.6 µM (inactive)	> 87.9 µM (inactive)	> 31.6 µM (inactive)	17.3 µM (inactive)	> 31.6 µM (inactive)	27.6 µM (inactive)	21.5 µM (inactive)	> 31.6 µM	> 10 µM (inactive)	> 31.6 µM (inactive)	–	–	–	–
CN(C)C[C@H]1CC[C@@H](CN(C)C)C1=O	1.29 µM (inactive)	9.4 µM (inactive)	0.564 µM (active)	9.23 µM (inactive)	8.32 µM (inactive)	5.68 µM (inactive)	3 µM (inactive)	48.9 µM (inactive)	8.71 µM (inactive)	15.2 µM (inactive)	6.18 µM (inactive)	0.453 µM (active)	8.11 µM (inactive)	4.65 µM	> 50 µM (inactive)	> 50 µM (inactive)	9.66 µM (inactive)	1.18 µM (inactive)	8.55 µM (inactive)	–
O=C(CC(=O)C1CCOC1=O)C(=O)Nc1cccc(Cl)c1 (stereo unspecified)	> 100 µM (inactive)	> 100 µM (inactive)	> 100 µM (inactive)	> 100 µM (inactive)	> 100 µM (inactive)	> 100 µM (inactive)	> 100 µM (inactive)	> 100 µM (inactive)	> 100 µM (inactive)	> 100 µM (inactive)	> 100 µM (inactive)	> 100 µM (inactive)	> 100 µM (inactive)	> 100 µM	> 100 µM (inactive)	> 100 µM (inactive)	–	–	–	–
Nc1ccc(S(=O)(=O)Nc2cnc3c(Cl)cccc3n2)cc1 [CHLORSULFAQUINOXALINE]	167 µM (inactive)	163 µM (inactive)	23.2 µM (inactive)	125 µM (inactive)	107 µM (inactive)	86.3 µM (inactive)	164 µM (inactive)	31.4 µM (inactive)	152 µM (inactive)	2.58 µM (inactive)	31.4 µM (inactive)	29 µM (inactive)	41.6 µM (inactive)	53 µM	78.9 µM (inactive)	> 33 µM (inactive)	> 70 µM (inactive)	101 µM (inactive)	24.3 µM (inactive)	47.5 µM (inactive)

— ChEMBL document CHEMBL1201862, “PubChem BioAssay data set” (2004)
